Experimental data from patent US8071627B2, “2-pyridinylethylcarboxamide derivatives and their use as fungicides” (Bayer SAS, priority 2003, dated 2011).

Key:
[1] = tested on: Botrytis cinerea; test: In vivo test on Botrytis cinerea (cucumber grey mould), cucumber plants, preventive spray; conditions: 330 ppm; comparison compounds of WO 01/11965
Description: (§1) The active ingredient tested is prepared by potter homogenisation in a concentrated suspension type formulation at 100 g/l. This suspension is then diluted with water to obtain the desired active material concentration.
(§2) Cucumber plants (Marketer variety) in starter cups, sown on a 50/50 peat soil-pozzolana substrate and grown at 18-20° C., are treated at the cotyledon Z11 stage by spraying with the aqueous suspension described above. Plants, used as controls, are treated with an aqueous solution not containing the active material.
After 24 hours, the plants are contaminated by depositing drops of an aqueous suspension of Botrytis cinerea spores (150,000 spores per ml) on upper surface of the leaves. The spores are collected from a 15-day-old culture and are suspended in a nutrient solution-composed of: • 20 g/L of gelatin • 50 g/L of cane sugar • 2 g/L of NH4NO3 • 1 g/L of KH2PO4
The contaminated cucumber plants are settled for 5/7 days in a climatic room at 15-11° C. (day/night) and at 80% relative humidity.
Grading is carried out 5/7 days after the contamination, in comparison with the control plants.

[2] = tested on: Alternaria brassicae; test: In vivo test on Alternaria brassicae (leaf spot of crucifers), radish plants, preventive spray; conditions: 330 ppm; comparison compounds of WO 01/11965
Description: as §1
Radish plants (Pernot variety) in starter cups, sown on a 50/50 peat soil-pozzolana substrate and grown at 18-20° C., are treated at the cotyledon stage by spraying with the aqueous suspension described above.
Plants, used as controls, are treated with an aqueous solution not containing the active material.
After 24 hours, the plants are contaminated by spraying them with an aqueous suspension of Alternaria brassicae spores (40,000 spores per cm^3). The spores are collected from a 12-13-day-old culture.
The contaminated radish plants are incubated for 6-7 days at about 18° C., under a humid atmosphere.
Grading is carried out 6 to 7 days after the contamination, in comparison with the control plants.

[3] = tested on: Peronospora brassicae; test: Test on Peronospora brassicae, cabbage plants, preventive spray; assay type: in vivo; conditions: 330 ppm; cabbage plants (Eminence variety); sprayed 24 hours before contamination; grading 5 days after contamination vs control plants
Description: as §1
as §2, with “Cabbage” for “Cucumber”, “(Eminence” for “(Marketer”, “cotyledon” for “cotyledon Z11”
After 24 hours, the plants are contaminated by spraying them with an aqueous suspension of Peronospora brassicae spores (50,000 spores per ml). The spores are collected from infected plant
The contaminated cabbage plants are incubated for 5 days at 20° C., under a humid atmosphere.
Grading is carried out 5 days after the contamination, in comparison with the control plants.

[4] = tested on: Peronospora parasitica; test: Efficacy against Peronospora parasitica (comparison compound); assay type: in vivo; conditions: 330 ppm; comparison compound of WO 01/11965

Structure (SMILES): CCNC(=O)C(Cc1ncc(C(F)(F)F)cc1Cl)NC(=O)c1ccccc1 (stereo not shown) [compound 304, N-{1-ethylcarbamoyl-2-[3-chloro-5-(trifluoromethyl)-2-pyridinyl]-ethyl}-benzamide]
- effectiveness on Botrytis cinerea (in words) [1]: zero effectiveness

Structure (SMILES): CNC(=O)C(Cc1ncc(C(F)(F)F)cc1Cl)NC(=O)c1ccc(-c2ccccc2)cc1 (stereo not shown) [compound 316, N-{1-methylcarbamoyl-2-[3-chloro-5-(trifluoromethyl)-2-pyridinyl]-ethyl}-4-phenylbenzamide]
- effectiveness on Alternaria brassicae (in words) [2]: poor effectiveness
- effectiveness on Botrytis cinerea (in words) [1]: zero effectiveness

Structure (SMILES): CNC(=O)C(Cc1ncc(C(F)(F)F)cc1Cl)NC(=O)c1ccccc1 (stereo not shown) [compound 314, N-{1-methylcarbamoyl-2-[3-chloro-5-(trifluoromethyl)-2-pyridinyl]ethyl}-benzamide]
- effectiveness on Botrytis cinerea (in words) [1]: zero effectiveness

Structure (SMILES): CCNC(=O)C(Cc1ncc(C(F)(F)F)cc1Cl)NC(=O)c1ccc(Cl)cc1 (stereo not shown) [compound 306, N-{1-ethylcarbamoyl-2-[3-chloro-5-(trifluoromethyl)-2-pyridinyl]ethyl}-4-chlorobenzamide]
- effectiveness on Botrytis cinerea (in words) [1]: zero effectiveness

Structure (SMILES): CNC(=O)C(Cc1ncc(C(F)(F)F)cc1Cl)NC(=O)c1ccc(OC)cc1 (stereo not shown) [compound 315, N-{1-methylcarbamoyl-2-[3-chloro-5-(trifluoromethyl)-2-pyridinyl]ethyl}-4-methoxybenzamide]
- effectiveness on Botrytis cinerea (in words) [1]: zero effectiveness

Structure (SMILES): CC1=C(C(=O)NCC(NC(=O)c2c(Cl)cccc2Cl)c2ncc(C(F)(F)F)cc2Cl)SCCO1 (stereo not shown) [Compound 46]
- protection (good (at least 50%) to total) [3]: at least 50%

Structure (SMILES): CCNC(=O)C(Cc1ncc(C(F)(F)F)cc1Cl)NC(=O)c1ccccc1Br (stereo not shown) [compound 310, N-{1-ethylcarbamoyl-2-[3-chloro-5-(trifluoromethyl)-2-pyridinyl]ethyl}-2-bromobenzamide]
- effectiveness on Botrytis cinerea (in words) [1]: zero effectiveness

Structure (SMILES): CCNC(=O)C(Cc1ncc(C(F)(F)F)cc1Cl)NC(=O)c1cccc([N+](=O)[O-])c1 (stereo not shown) [compound 307, N-{1-ethylcarbamoyl-2-[3-chloro-5-(trifluoromethyl)-2-pyridinyl]ethyl}-3-nitrobenzamide]
- effectiveness on Alternaria brassicae (in words) [2]: poor effectiveness
- effectiveness on Botrytis cinerea (in words) [1]: zero effectiveness

Structure (SMILES): O=C(Cc1cccs1)NCc1ncc(C(F)(F)F)cc1Cl [compound 101, N-{[3-chloro-5-(trifluoromethyl)-2-pyridinyl]methyl}-5-thienylacetamide]
- effectiveness on Alternaria brassicae (in words) [2]: poor efficacy
- effectiveness on Botrytis cinerea (in words) [1]: no efficacy
- efficacy against Peronospora parasitica (in words) [4]: no efficacy
